Measurements published in paper PMC8151276, “An Integrated Approach toward NanoBRET Tracers for Analysis of GPCR Ligand Engagement” (Molecules, 2021).

What was measured:
Format in all cases: binding
CXCR5 = target: T1, CXCR5 (Homo sapiens, UniProt P32302); assay: NanoBRET screen HiBiT-CXCR5 in HEK293
T1 construct: purchased Promega (in-house HiBiT-GPCR construct library, NanoBRET)
T1 sequence (P32302 1-372): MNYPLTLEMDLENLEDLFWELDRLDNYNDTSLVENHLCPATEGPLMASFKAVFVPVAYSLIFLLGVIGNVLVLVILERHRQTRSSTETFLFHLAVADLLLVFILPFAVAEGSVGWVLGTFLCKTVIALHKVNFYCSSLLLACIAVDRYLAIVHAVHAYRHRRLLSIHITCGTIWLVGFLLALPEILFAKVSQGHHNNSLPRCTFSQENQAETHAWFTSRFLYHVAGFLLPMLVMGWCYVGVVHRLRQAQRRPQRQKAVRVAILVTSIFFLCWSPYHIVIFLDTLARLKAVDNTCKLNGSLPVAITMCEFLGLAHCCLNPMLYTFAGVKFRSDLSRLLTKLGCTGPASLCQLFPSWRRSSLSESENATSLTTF
Experimental: (§1) Each tracer candidate was screened across the entire library of HiBiT-GPCR constructs using NanoBRET as the detection modality. As depicted in Figure 4A, the specificity of interactions was evaluated through decrease in BRET due to competitive displacement of a bound tracer by excess parental compound. Each tracer was analyzed for binding to each HiBiT-GPCR fusion in the absence and in the presence of competing parental compound. Briefly, HEK293 cells were transfected with HiBiT-GPCR constructs diluted into promoterless DNA to reduce expression and maximize translocation to the cell surface. Each tracer candidate was then screened at concentrations of 1 μM and 0.1 μM across cells expressing these fusions. Cells were treated for 1.5 h with tracer either alone or in the presence of 20 μM competing parental compound (i.e., control). BRET was measured upon addition of purified LgBiT and subsequent complementation with HiBiT genetically fused to a GPCR. The specificity of interactions was assessed through a decrease in BRET signal due to competitive displacement of the bound tracer. To further gauge the robustness of these interactions, the fold response over the control (i.e., BRETtracer/BRETcontrol) was calculated. We chose a 1.5-fold response, which translates to ≥7-fold signal over noise as the minimal threshold required to score an interaction as positive. […]. Below we highlight the screening results obtained for our exemplary fluorescent tracers based on Clozapine, Amitriptyline and AZD1283.
(§2) HiBiT-GPCR DNA constructs were diluted in 10 mM Tris pH 8 to a final concentration of 0.01 μg/μL, arrayed in 96-well plates and stored at −20 °C. For transfection, HEK293 cells were suspended in Opti-MEM (without phenol red) supplemented with 2% fetal bovine serum (Seradigm) and 100 units/mL penicillin–streptomycin (Gibco) at a final concentration of 220,000 cells/mL and dispensed into white 96-well plates at 90 μL/well. Subsequent transfections and screens were carried using an Agilent Bravo Automated Liquid Handling Platform. First, the 96-well HiBiT DNA arrays were diluted 25-fold in Opti-MEM (without serum or phenol red) to a final concentration of 0.0004 μg/μL and 20 μL of the diluted DNAs were transferred into new 96-well plates. Next, promoterless carrier DNA (1 μg/μL) was diluted 25-fold (0.04 μg/μL) and then dispensed into the diluted arrays at 20 μL/well. Following brief mixing, Viafect transfection reagent (Promega) diluted 16-fold into Opti-MEM was dispensed into the plates at 40 μL/well. After mixing by pipetting, plates were incubated for 10 min on the pipetting station deck. The DNA-transfection reagent complexes were then added to plates containing cells. To facilitate the screen, 10 μL of DNA-transfection reagent complexes were added in duplicates to the top 4 and bottom 4 rows, resulting in two identical 48-well arrays per plate. Plates with transfected cells were incubated for 18–20 h at 37 °C/5% CO2. A screen of each tracer across the entire library using two different concentrations requires duplicate plates of transfected cells. Depending on the number of tracers being screened, transfections can be scaled up using the same ratios. The next day, for each tracer, four 20× screening solutions in tracer dilution buffer (Promega) were prepared: two duplicates at final concentration of 20 μM and two duplicates at a final concentration of 2 μM. A competing unmodified compound was added to one of each duplicate at a final concentration of 400 μM. The four resulting solutions were diluted 4-fold in Opti-MEM without serum or phenol red to generate 5× solutions (5 µM and 0.5 µM tracer +/− 100 μM competing compound). To screen the library, a BioTek MultiFlo FX liquid dispenser was used to dispense 22.5 µL of tracer solution to the top 4 rows and 22.5 µL tracer + competing compound solution to the 4 bottom rows. Plates were briefly mixed on an orbital shaker and incubated for 1.5 h at room temperature. […]

SSTR4 = target: T2, SSTR4 (Homo sapiens, UniProt P31391); assay: NanoBRET screen HiBiT-SSTR4 in HEK293
T2 construct: purchased Promega (in-house HiBiT-GPCR construct library, NanoBRET)
T2 sequence (P31391 whole entry): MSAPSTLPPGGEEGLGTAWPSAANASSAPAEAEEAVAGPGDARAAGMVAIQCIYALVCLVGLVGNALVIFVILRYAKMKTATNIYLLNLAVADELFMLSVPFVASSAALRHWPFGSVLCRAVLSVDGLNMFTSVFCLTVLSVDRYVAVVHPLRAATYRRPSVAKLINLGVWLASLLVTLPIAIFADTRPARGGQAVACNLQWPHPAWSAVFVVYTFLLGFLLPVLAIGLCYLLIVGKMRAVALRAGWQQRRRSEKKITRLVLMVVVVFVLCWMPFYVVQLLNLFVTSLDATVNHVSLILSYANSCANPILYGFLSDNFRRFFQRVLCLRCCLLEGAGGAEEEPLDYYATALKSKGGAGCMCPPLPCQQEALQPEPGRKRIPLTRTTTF
Experimental: as §1, §2

RXFP2 = target: T3, RXFP2 (Homo sapiens, UniProt Q8WXD0); assay: NanoBRET screen HiBiT-RXFP2 in HEK293; conditions: RXFP2
T3 construct: purchased Promega (in-house HiBiT-GPCR construct library, NanoBRET)
T3 sequence (Q8WXD0 whole entry): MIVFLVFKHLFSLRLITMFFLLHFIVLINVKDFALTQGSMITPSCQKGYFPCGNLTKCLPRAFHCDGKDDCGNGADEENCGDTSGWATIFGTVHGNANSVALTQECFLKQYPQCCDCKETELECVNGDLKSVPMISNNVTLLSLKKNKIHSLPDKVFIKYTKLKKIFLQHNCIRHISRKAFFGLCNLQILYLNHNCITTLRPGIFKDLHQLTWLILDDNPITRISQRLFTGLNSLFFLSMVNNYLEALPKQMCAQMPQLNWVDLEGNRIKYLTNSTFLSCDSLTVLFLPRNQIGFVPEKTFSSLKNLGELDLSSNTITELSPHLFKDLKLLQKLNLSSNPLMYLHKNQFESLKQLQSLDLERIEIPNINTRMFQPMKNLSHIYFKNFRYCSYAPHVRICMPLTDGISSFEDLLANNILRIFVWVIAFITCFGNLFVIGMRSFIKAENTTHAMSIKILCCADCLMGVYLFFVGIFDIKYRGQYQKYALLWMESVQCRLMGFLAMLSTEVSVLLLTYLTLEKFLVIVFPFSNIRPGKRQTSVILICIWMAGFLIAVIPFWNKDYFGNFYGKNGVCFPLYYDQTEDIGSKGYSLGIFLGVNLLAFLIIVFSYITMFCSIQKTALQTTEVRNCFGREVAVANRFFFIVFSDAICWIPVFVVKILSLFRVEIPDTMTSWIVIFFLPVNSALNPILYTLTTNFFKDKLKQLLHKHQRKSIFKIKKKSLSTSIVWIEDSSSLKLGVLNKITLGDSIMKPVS
Experimental: as §1, §2

FZD2 = target: T4, FZD2 (Homo sapiens, UniProt Q14332); assay: NanoBRET screen HiBiT-FZD2 in HEK293
T4 construct: purchased Promega (in-house HiBiT-GPCR construct library, NanoBRET)
T4 sequence (Q14332 24-565): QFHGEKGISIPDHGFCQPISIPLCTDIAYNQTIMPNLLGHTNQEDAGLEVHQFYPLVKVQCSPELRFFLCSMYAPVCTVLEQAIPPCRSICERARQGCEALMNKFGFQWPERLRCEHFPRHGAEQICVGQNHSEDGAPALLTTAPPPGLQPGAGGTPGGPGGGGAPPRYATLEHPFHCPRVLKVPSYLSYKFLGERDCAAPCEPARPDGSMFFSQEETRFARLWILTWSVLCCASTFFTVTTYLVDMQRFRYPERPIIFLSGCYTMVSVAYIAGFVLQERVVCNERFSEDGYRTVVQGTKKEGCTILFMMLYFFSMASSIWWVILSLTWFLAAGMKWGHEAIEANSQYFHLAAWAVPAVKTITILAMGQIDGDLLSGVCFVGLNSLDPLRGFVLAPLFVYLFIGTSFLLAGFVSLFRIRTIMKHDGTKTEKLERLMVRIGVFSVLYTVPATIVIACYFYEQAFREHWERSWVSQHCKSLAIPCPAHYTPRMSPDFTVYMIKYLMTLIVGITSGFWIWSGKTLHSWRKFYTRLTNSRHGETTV
Experimental: as §1, §2

SSTR5 = target: T5, SSTR5 (Homo sapiens, UniProt P35346); assay: NanoBRET screen HiBiT-SSTR5 in HEK293
T5 construct: purchased Promega (in-house HiBiT-GPCR construct library, NanoBRET)
T5 sequence (P35346 whole entry): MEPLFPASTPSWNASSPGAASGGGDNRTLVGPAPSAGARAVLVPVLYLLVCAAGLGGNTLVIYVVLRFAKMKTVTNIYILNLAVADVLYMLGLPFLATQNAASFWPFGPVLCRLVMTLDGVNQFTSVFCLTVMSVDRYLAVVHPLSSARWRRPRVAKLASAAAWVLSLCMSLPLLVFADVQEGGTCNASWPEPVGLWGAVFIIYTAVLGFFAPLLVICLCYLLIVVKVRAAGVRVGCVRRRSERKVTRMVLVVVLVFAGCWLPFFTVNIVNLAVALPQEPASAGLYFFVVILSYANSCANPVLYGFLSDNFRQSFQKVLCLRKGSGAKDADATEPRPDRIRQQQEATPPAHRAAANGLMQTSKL
Experimental: as §1, §2

GCGR = target: T6, GCGR (Homo sapiens, UniProt P47871); assay: NanoBRET screen HiBiT-GCGR in HEK293; conditions: GCGR
T6 construct: purchased Promega (in-house HiBiT-GPCR construct library, NanoBRET)
T6 sequence (P47871 26-477): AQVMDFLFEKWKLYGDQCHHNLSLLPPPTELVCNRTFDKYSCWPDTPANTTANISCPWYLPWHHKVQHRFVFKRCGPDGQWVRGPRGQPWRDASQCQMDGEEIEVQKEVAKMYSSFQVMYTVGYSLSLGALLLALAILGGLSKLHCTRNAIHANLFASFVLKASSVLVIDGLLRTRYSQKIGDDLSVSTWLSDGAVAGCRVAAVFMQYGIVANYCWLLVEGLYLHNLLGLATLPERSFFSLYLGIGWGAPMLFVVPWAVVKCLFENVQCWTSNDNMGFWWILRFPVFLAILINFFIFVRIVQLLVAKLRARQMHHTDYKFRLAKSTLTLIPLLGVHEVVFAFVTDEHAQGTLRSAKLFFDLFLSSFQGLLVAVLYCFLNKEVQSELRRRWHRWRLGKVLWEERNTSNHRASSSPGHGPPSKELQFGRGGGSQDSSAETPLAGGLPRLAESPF
Experimental: as §1, §2

SSTR3 = target: T7, SSTR3 (Homo sapiens, UniProt P32745); assay: NanoBRET screen HiBiT-SSTR3 in HEK293
T7 construct: purchased Promega (in-house HiBiT-GPCR construct library, NanoBRET)
T7 sequence (P32745 whole entry): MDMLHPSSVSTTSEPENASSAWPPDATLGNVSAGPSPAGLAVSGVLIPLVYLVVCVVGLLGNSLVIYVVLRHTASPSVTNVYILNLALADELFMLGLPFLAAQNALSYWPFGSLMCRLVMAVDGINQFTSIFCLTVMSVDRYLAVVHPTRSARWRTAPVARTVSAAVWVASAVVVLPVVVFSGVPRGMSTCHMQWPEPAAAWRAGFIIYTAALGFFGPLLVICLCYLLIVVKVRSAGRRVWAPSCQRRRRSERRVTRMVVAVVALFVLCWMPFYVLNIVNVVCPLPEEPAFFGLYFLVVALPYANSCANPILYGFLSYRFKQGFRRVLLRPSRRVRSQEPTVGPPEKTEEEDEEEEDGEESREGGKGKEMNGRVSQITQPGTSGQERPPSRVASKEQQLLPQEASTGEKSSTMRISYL
Experimental: as §1, §2

NMUR1 = target: T8, NMUR1 (Homo sapiens, UniProt Q9HB89); assay: NanoBRET screen HiBiT-NMUR1 in HEK293
T8 construct: purchased Promega (in-house HiBiT-GPCR construct library, NanoBRET)
T8 sequence (Q9HB89 1-426): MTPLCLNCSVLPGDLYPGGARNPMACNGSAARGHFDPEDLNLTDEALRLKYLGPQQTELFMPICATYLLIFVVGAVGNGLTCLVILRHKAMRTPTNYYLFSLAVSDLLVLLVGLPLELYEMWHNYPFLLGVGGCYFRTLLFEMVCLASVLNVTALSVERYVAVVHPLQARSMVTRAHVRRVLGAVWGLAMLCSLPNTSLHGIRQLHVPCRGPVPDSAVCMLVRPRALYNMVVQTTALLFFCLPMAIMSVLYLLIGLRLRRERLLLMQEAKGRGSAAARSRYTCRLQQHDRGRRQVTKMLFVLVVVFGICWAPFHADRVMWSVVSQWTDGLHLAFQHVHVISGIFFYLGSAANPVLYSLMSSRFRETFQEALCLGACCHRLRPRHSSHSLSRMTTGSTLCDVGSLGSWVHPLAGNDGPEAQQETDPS
Experimental: as §1, §2

With CCOC(=O)c1cc(C#N)c(N2CCC(C(=O)NS(=O)(=O)Cc3ccccc3/C=C/C(=O)NCCNC(=O)CCc3ccc4n3[B-](F)(F)[N+]3=C(c5ccc[nH]5)C=CC3=C4)CC2)nc1C [AZD1283-1-NB590] the “NanoBRET Fold Response” value (CXCR5; CXCR5, 0.1μM) was 1.04, the “NanoBRET Fold Response” value (CXCR5; CXCR5, 1μM) was 1.12 and the “NanoBRET Fold Response” value (SSTR4; SSTR4, 0.1μM) was 1.10. For the same molecule, the “NanoBRET Fold Response” value (SSTR4; SSTR4, 1μM) was 1.07, the “NanoBRET Fold Response” value (RXFP2; 0.1μM) was 1.25 and the “NanoBRET Fold Response” value (RXFP2; 1μM) was 1.29. For the same molecule, the “NanoBRET Fold Response” value (FZD2; FZD2, 0.1μM) was 1.04, the “NanoBRET Fold Response” value (FZD2; FZD2, 1μM) was 1.11 and the “NanoBRET Fold Response” value (SSTR5; SSTR5, 0.1μM) was 1.09. For the same molecule, the “NanoBRET Fold Response” value (SSTR5; SSTR5, 1μM) was 1.05, the “NanoBRET Fold Response” value (GCGR; 0.1μM) was 1.05 and the “NanoBRET Fold Response” value (GCGR; 1μM) was 1.12. For the same molecule, the “NanoBRET Fold Response” value (SSTR3; SSTR3, 0.1μM) was 1.07, the “NanoBRET Fold Response” value (SSTR3; SSTR3, 1μM) was 1.13 and the “NanoBRET Fold Response” value (NMUR1; NMUR1, 0.1μM) was 1.05. For the same molecule, the “NanoBRET Fold Response” value (NMUR1; NMUR1, 1μM) was 1.04.
With N#CN=C(NCCCOc1cccc(CN2CCCCC2)c1)NCCNC(=O)CCOCCOCCOCCOCCNC(=O)CCc1ccc2n1[B-](F)(F)[N+]1=C(c3ccc[nH]3)C=CC1=C2 [Aminopotentidine-2-NB590] the “NanoBRET Fold Response” value (CXCR5; CXCR5, tracer 0.1μM) was 1.04, the “NanoBRET Fold Response” value (CXCR5; CXCR5, tracer 1μM) was 0.99 and the “NanoBRET Fold Response” value (SSTR4; SSTR4, tracer 0.1μM) was 1.08. The “NanoBRET Fold Response” value (SSTR4; SSTR4, tracer 1μM) was 1.00, the “NanoBRET Fold Response” value (RXFP2; tracer 0.1μM) was 0.83 and the “NanoBRET Fold Response” value (RXFP2; tracer 1μM) was 0.83. For the same molecule, the “NanoBRET Fold Response” value (FZD2; FZD2, tracer 0.1μM) was 1.08, the “NanoBRET Fold Response” value (FZD2; FZD2, tracer 1μM) was 1.06 and the “NanoBRET Fold Response” value (SSTR5; SSTR5, tracer 0.1μM) was 0.97. The “NanoBRET Fold Response” value (SSTR5; SSTR5, tracer 1μM) was 1.00, the “NanoBRET Fold Response” value (GCGR; tracer 0.1μM) was 0.95 and the “NanoBRET Fold Response” value (GCGR; tracer 1μM) was 1.04. For the same molecule, the “NanoBRET Fold Response” value (SSTR3; SSTR3, tracer 0.1μM) was 1.03, the “NanoBRET Fold Response” value (SSTR3; SSTR3, tracer 1μM) was 0.99 and the “NanoBRET Fold Response” value (NMUR1; NMUR1, tracer 0.1μM) was 1.05. The “NanoBRET Fold Response” value (NMUR1; NMUR1, tracer 1μM) was 0.98.
In the case of CN(C)CCC=C1c2ccccc2CCc2ccc(C(=O)NCCNC(=O)CCOCCOCCOCCOCCNC(=O)CCc3ccc4n3[B-](F)(F)[N+]3=C(c5ccc[nH]5)C=CC3=C4)cc21 [Amitriptyline-a-2-NB590], the “NanoBRET Fold Response” value (CXCR5; tracer at 0.1μM) was 1.04, the “NanoBRET Fold Response” value (CXCR5; tracer at 1μM) was 1.01 and the “NanoBRET Fold Response” value (SSTR4; tracer at 0.1μM) was 1.09. The “NanoBRET Fold Response” value (SSTR4; tracer at 1μM) was 1.09, the “NanoBRET Fold Response” value (FZD2; tracer at 0.1μM) was 1.04 and the “NanoBRET Fold Response” value (FZD2; tracer at 1μM) was 1.00. The “NanoBRET Fold Response” value (SSTR5; tracer at 0.1μM) was 1.00, the “NanoBRET Fold Response” value (SSTR5; tracer at 1μM) was 1.05 and the “NanoBRET Fold Response” value (SSTR3; tracer at 0.1μM) was 1.05. For the same molecule, the “NanoBRET Fold Response” value (SSTR3; tracer at 1μM) was 1.05, the “NanoBRET Fold Response” value (NMUR1; tracer at 0.1μM) was 1.01 and the “NanoBRET Fold Response” value (NMUR1; tracer at 1μM) was 0.99.
